Experimental data published in patent US20110015067A1, “Herbicidal Compositions Comprising Pyroxasulfone” (BASF SE, priority 2008, published 2011).

Columns and labels:
Assay type in all cases: in vivo
[1] = tested on: AMBEL (Ambrosia artemisifolia); assay: pre-emergence greenhouse test; details: for observed activity in % destruction: pre-emergence, 15 g ai/ha
Text: (§1) For the pre-emergence treatment, directly after sowing the active compounds, which had been suspended or emulsified in water, were applied by means of finely distributed nozzles. The containers were irrigated gently to promote germination and growth and subsequently covered with transparent plastic hoods until plant had rooted. This cover caused uniform germination of the tests plants, unless this was adversely affected by active compounds.
(§2) The respective herbicides A and/or safener were formulated as 10% by weight strength suspension concentrate and introduced to the spray liquor with the amount of solvent system used for applying the active compound. Herbicide B and/or safener were used as commercially available formulations and introduced to the spray liquor with the amount of solvent system used for applying the active compound. In the examples, the solvent used was water.
(§3) The test period extended over 20 days. During this time, the plants were tended, and their response to the treatments with active compound was evaluated.
(§4) In the following experiments, the herbicidal activity for the individual herbicide compounds (solo application) and of the mixture was assessed 8 days after treatment (8 DAT) and/or 20 days after treatment (20 DAT).
(§5) The evaluation for the damage caused by the chemical compositions was carried out using a scale from 0 to 100%, compared to the untreated control plants. Here, 0 means no damage and 100 means complete destruction of the plants.

PHBPU (Ipomoea purpurea) = assay: pre-emergence greenhouse test
Text: as §1, §2, §3, §4, §5

[2] = tested on: ALOMY (Alopecurus myosuroides); assay: pre-emergence greenhouse test; details: for observed activity in % destruction: pre-emergence, 7.5 g ai/ha
Text: as §1, §2, §3, §4, §5

[3] = tested on: AMARE (Amaranthus retroflexus); assay: pre-emergence greenhouse test
Text: as §1, §2, §3, §4, §5

[4] = tested on: COMBE (Commelina benghalensis); assay: pre-emergence greenhouse test; details: for observed activity in % destruction: pre-emergence
Text: as §1, §2, §3, §4, §5

[5] = tested on: BRAPL (Brachiaria plantaginea); assay: pre-emergence greenhouse test; details: BRAPL pre-emergence 7.5 g ai/ha
Text: as §1, §2, §3, §4, §5

SOLNI (Solanum nigrum) = assay: pre-emergence greenhouse test; details: for observed activity in % destruction: pre-emergence, 7.5 g ai/ha
Text: as §1, §2, §3, §4, §5

[6] = tested on: ECHCG (Echinochloa crus-galli); assay: pre-emergence greenhouse test
Text: as §1, §2, §3, §4, §5

SETFA (Setaria faberii) = assay: pre-emergence greenhouse test
Text: as §1, §2, §3, §4, §5

SETVI (Setaria viridis) = assay: pre-emergence greenhouse test
Text: as §1, §2, §3, §4, §5

[7] = tested on: PANMI (Panicum milliaceum); assay: pre-emergence greenhouse test
Text: as §1, §2, §3, §4, §5

[8] = tested on: PANDI (Panicum dichotomiflorum); assay: pre-emergence greenhouse test; details: PANDI pre-emergence 7.5 g ai/ha
Text: as §1, §2, §3, §4, §5

ERBVI = assay: pre-emergence greenhouse test
Text: as §1, §2, §3, §4, §5

[9] = tested on: ALOMY (Alopecurus myosuroides); assay: post-emergence greenhouse test
Text: (§6) For the post-emergence treatment, the test plants were first grown to a height of 3 to 20 cm, depending on the plant habit, and only then treated. Here, the herbicidal compositions were suspended or emulsified in water as distribution medium and sprayed using finely distributing nozzles.
as §2, §3, §4, §5

[10] = tested on: CHEAL (Chenopodium album); assay: post-emergence greenhouse test; details: 15 g ai/ha
Text: as §6, §2, §3, §4, §5

[11] = ALOMY pre-emergence 3.75 g ai/ha
[12] = ALOMY pre-emergence 7.5 g ai/ha
[13] = AMARE pre-emergence 3.75 g ai/ha
[14] = AMARE pre-emergence 7.5 g ai/ha
[15] = COMBE pre-emergence 3.75 g ai/ha
[16] = COMBE pre-emergence 7.5 g ai/ha
[17] = SOLNI pre-emergence 7.5 g ai/ha
[18] = ECHCG pre-emergence 7.5 g ai/ha
[19] = SETVI pre-emergence 3.75 g ai/ha

COCc1cnc(C2=NC(C)(C(C)C)C(=O)N2)c(C(=O)O)c1 (stereo not shown) [imazamox]
observed % destruction 8 DAT ([1]; AMBEL pre-emergence 15 g ai/ha): 50%
observed % destruction 20 DAT ([1]; AMBEL pre-emergence 15 g ai/ha): 80%
observed activity in % destruction ([1]; 8 DAT): 50%
observed activity in % destruction ([1]; 20 DAT): 80%
observed % destruction 20 DAT (PHBPU (Ipomoea purpurea); PHBPU pre-emergence 7.5 g ai/ha): 20%
observed % destruction 20 DAT (PHBPU (Ipomoea purpurea); PHBPU pre-emergence 15 g ai/ha): 70%
observed % destruction 8 DAT [2, 11]: 20%
observed % destruction 20 DAT [2, 11]: 40%
observed % destruction 8 DAT [2, 12]: 30%
observed % destruction 20 DAT [2, 12]: 40%
observed % destruction 8 DAT ([2]; ALOMY pre-emergence 15 g ai/ha): 50%
observed % destruction 20 DAT ([2]; ALOMY pre-emergence 15 g ai/ha): 80%
observed activity in % destruction ([2]; 8 DAT): 30%
observed activity in % destruction ([2]; 20 DAT): 40%
observed % destruction 8 DAT [3, 13]: 20%
observed % destruction 20 DAT [3, 13]: 30%
observed % destruction 8 DAT [3, 14]: 55%
observed % destruction 20 DAT [3, 14]: 80%
observed % destruction 8 DAT ([3]; AMARE pre-emergence 15 g ai/ha): 65%
observed % destruction 20 DAT ([3]; AMARE pre-emergence 15 g ai/ha): 95%
observed % destruction 8 DAT [4, 15]: 20%
observed % destruction 20 DAT [4, 15]: 30%
observed % destruction 8 DAT [4, 16]: 40%
observed % destruction 20 DAT [4, 16]: 35%
observed % destruction 8 DAT ([4]; COMBE pre-emergence 15 g ai/ha): 50%
observed % destruction 20 DAT ([4]; COMBE pre-emergence 15 g ai/ha): 75%
observed activity in % destruction ([4]; 3.75 g ai/ha, 8 DAT): 20%
observed activity in % destruction ([4]; 3.75 g ai/ha, 20 DAT): 30%
observed activity in % destruction ([4]; 7.5 g ai/ha, 8 DAT): 40%
observed activity in % destruction ([4]; 7.5 g ai/ha, 20 DAT): 35%
observed % destruction 8 DAT [5]: 0%
observed % destruction 20 DAT [5]: 45%
observed % destruction 20 DAT (SOLNI (Solanum nigrum); SOLNI pre-emergence 3.75 g ai/ha): 20%
observed % destruction 8 DAT (SOLNI (Solanum nigrum); [17]): 30%
observed % destruction 20 DAT (SOLNI (Solanum nigrum); [17]): 80%
observed % destruction 20 DAT (SOLNI (Solanum nigrum); SOLNI pre-emergence 15 g ai/ha): 85%
observed activity in % destruction (SOLNI (Solanum nigrum); 8 DAT): 30%
observed activity in % destruction (SOLNI (Solanum nigrum); 20 DAT): 80%
observed % destruction 20 DAT ([6]; ECHCG pre-emergence 3.75 g ai/ha): 0%
observed % destruction 8 DAT [6, 18]: 20%
observed % destruction 20 DAT [6, 18]: 10%
observed % destruction 8 DAT ([6]; ECHCG pre-emergence 15 g ai/ha): 60%
observed % destruction 20 DAT ([6]; ECHCG pre-emergence 15 g ai/ha): 75%
observed % destruction 20 DAT (SETFA (Setaria faberii); SETFA pre-emergence 3.75 g ai/ha): 30%
observed % destruction 20 DAT (SETFA (Setaria faberii); SETFA pre-emergence 7.5 g ai/ha): 60%
observed % destruction 20 DAT (SETFA (Setaria faberii); SETFA pre-emergence 15 g ai/ha): 85%
observed % destruction 8 DAT (SETVI (Setaria viridis); [19]): 0%
observed % destruction 20 DAT (SETVI (Setaria viridis); [19]): 20%
observed % destruction 20 DAT (SETVI (Setaria viridis); SETVI pre-emergence 7.5 g ai/ha): 90%
observed % destruction 8 DAT (SETVI (Setaria viridis); SETVI pre-emergence 15 g ai/ha): 85%
observed % destruction 20 DAT (SETVI (Setaria viridis); SETVI pre-emergence 15 g ai/ha): 95%
observed % destruction 20 DAT ([7]; PANMI pre-emergence 3.75 g ai/ha): 20%
observed % destruction 20 DAT ([7]; PANMI pre-emergence 7.5 g ai/ha): 30%
observed % destruction 8 DAT [8]: 20%
observed % destruction 20 DAT [8]: 75%
observed % destruction 20 DAT (ERBVI; ERBVI pre-emergence 3.75 g ai/ha): 0%
observed % destruction 20 DAT (ERBVI; ERBVI pre-emergence 7.5 g ai/ha): 0%
observed % destruction 20 DAT (ERBVI; ERBVI pre-emergence 15 g ai/ha): 20%
observed activity in % destruction ([9]; 3.75 g ai/ha, 8 DAT): 25%
observed activity in % destruction ([9]; 3.75 g ai/ha, 20 DAT): 30%
observed activity in % destruction ([9]; 7.5 g ai/ha, 8 DAT): 35%
observed activity in % destruction ([9]; 7.5 g ai/ha, 20 DAT): 35%
observed activity in % destruction ([10]; 8 DAT): 0%
observed activity in % destruction ([10]; 20 DAT): 0%
